Legend:
Assay in all cases: cells
SCH = format: functional, cell-based, Homo sapiens; settings: Homo sapiens, SCH;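 also: growth inhibition of human SCH cells, read out in a cell viability assay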
Description: SANGER: Inhibition of human SCH cell growth in a cell viability assay.

NCI-H1355 = format: functional, cell-based, Homo sapiens; settings: Homo sapiens, NCI-H1355;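 also: growth inhibition of human NCI-H1355 cells, read out by a cell viability assay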
Description: SANGER: Inhibition of human NCI-H1355 cell growth in a cell viability assay.

MSTO-211H = format: functional, cell-based, Homo sapiens; settings: Homo sapiens, MSTO-211H
Description: SANGER: Inhibition of human MSTO-211H cell growth in a cell viability assay.

P30-OHK = format: functional, cell-based, Homo sapiens; settings: Homo sapiens, P30-OHK;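 also: growth inhibition of the P30-OHK cell line, read out with a cell viability assay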
Description: SANGER: Inhibition of human P30-OHK cell growth in a cell viability assay.

EKVX = format: functional, cell-based, Homo sapiens; settings: Homo sapiens, EKVX;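 also: growth inhibition of human EKVX cells, read out with a cell viability assay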
Description: SANGER: Inhibition of human EKVX cell growth in a cell viability assay.

ES7 = format: functional, cell-based, Homo sapiens; settings: Homo sapiens, ES7;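 also: growth inhibition of cultured human ES7 cells, read out as cell viability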
Description: SANGER: Inhibition of human ES7 cell growth in a cell viability assay.

KINGS-1 = format: functional, cell-based, Homo sapiens; settings: Homo sapiens, KINGS-1;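 also: cell viability assay measuring suppression of KINGS-1 cell growth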
Description: SANGER: Inhibition of human KINGS-1 cell growth in a cell viability assay.

RH-1 = format: functional, cell-based, Homo sapiens; settings: Homo sapiens, RH-1;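 also: growth inhibition of human RH-1 cells, read out with a cell viability assay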
Description: SANGER: Inhibition of human RH-1 cell growth in a cell viability assay.

ATN-1 = format: functional, cell-based, Homo sapiens; settings: Homo sapiens, ATN-1;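 also: growth inhibition of human ATN-1 cells, read out with a cell viability assay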
Description: SANGER: Inhibition of human ATN-1 cell growth in a cell viability assay.

COLO-829 = format: functional, cell-based, Homo sapiens; settings: Homo sapiens, COLO-829
Description: SANGER: Inhibition of human COLO-829 cell growth in a cell viability assay.

SF-268 = format: functional, cell-based, Homo sapiens; settings: Homo sapiens, SF-268;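 also: growth inhibition of SF-268 cells determined with a cell viability assay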
Description: SANGER: Inhibition of human SF268 cell growth in a cell viability assay.

SK-N-DZ = format: functional, cell-based, Homo sapiens; settings: Homo sapiens, SK-N-DZ; read-out: IC50;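 also: growth inhibition of the cancer cell line, read out through a viability assay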
Description: SANGER: Inhibition of human SK-N-DZ cell growth in a cell viability assay.

K562 = format: functional, cell-based, Homo sapiens; settings: Homo sapiens, K562
Description: SANGER: Inhibition of human K-562 cell growth in a cell viability assay.

D283 Med = format: functional, cell-based, Homo sapiens; settings: Homo sapiens, D283 Med
Description: SANGER: Inhibition of human D-283MED cell growth in a cell viability assay.

SK-NEP-1 = format: functional, cell-based, Homo sapiens; settings: Homo sapiens, SK-NEP-1;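 also: growth inhibition of human SK-NEP-1 cells, read out by a cell viability assay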
Description: SANGER: Inhibition of human SK-NEP-1 cell growth in a cell viability assay.

COLO-800 = format: functional, cell-based, Homo sapiens; settings: Homo sapiens, COLO-800;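 also: growth inhibition of COLO-800 cells, read out with a cell viability assay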
Description: SANGER: Inhibition of human COLO-800 cell growth in a cell viability assay.

ETK-1 = format: functional, cell-based, Homo sapiens; settings: Homo sapiens, ETK-1;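 also: growth inhibition of human ETK-1 cells, read out with a cell viability assay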
Description: SANGER: Inhibition of human ETK-1 cell growth in a cell viability assay.

A4-Fuk = format: functional, cell-based, Homo sapiens; settings: Homo sapiens, A4-Fuk;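 also: growth inhibition of A4-Fuk cells, read out by a cell viability assay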
Description: SANGER: Inhibition of human A4-Fuk cell growth in a cell viability assay.

NCI-H1838 = format: functional, cell-based, Homo sapiens; settings: Homo sapiens, NCI-H1838;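 also: growth inhibition of NCI-H1838 cells, determined with a cell viability readout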
Description: SANGER: Inhibition of human NCI-H1838 cell growth in a cell viability assay.

GCIY = format: functional, cell-based, Homo sapiens; settings: Homo sapiens, GCIY;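 also: growth inhibition of the human GCIY cell line, read out by a cell viability assay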
Description: SANGER: Inhibition of human GCIY cell growth in a cell viability assay.

COLO-668 = format: functional, cell-based, Homo sapiens; settings: Homo sapiens, COLO-668
Description: SANGER: Inhibition of human COLO-668 cell growth in a cell viability assay.

MFM-223 = format: functional, cell-based, Homo sapiens; settings: Homo sapiens, MFM-223
Description: SANGER: Inhibition of human MFM-223 cell growth in a cell viability assay.

NOMO-1 = format: functional, cell-based, Homo sapiens; settings: Homo sapiens, NOMO-1;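 also: growth inhibition of human NOMO-1 cells measured by a cell viability assay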
Description: SANGER: Inhibition of human NOMO-1 cell growth in a cell viability assay.

RPMI-8226 = format: functional, cell-based, Homo sapiens; settings: Homo sapiens, RPMI-8226
Description: SANGER: Inhibition of human RPMI-8226 cell growth in a cell viability assay.

QIMR-WIL = format: functional, cell-based, Homo sapiens; settings: Homo sapiens, QIMR-WIL;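 also: growth inhibition of QIMR-WIL cells, read out with a cell viability assay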
Description: SANGER: Inhibition of human QIMR-WIL cell growth in a cell viability assay.

SW872 = format: functional, cell-based, Homo sapiens; settings: Homo sapiens, SW872;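 also: growth inhibition of SW872 cells, read out by a viability assay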
Description: SANGER: Inhibition of human SW872 cell growth in a cell viability assay.

HAL-01 = format: functional, cell-based, Homo sapiens; settings: Homo sapiens, HAL-01;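 also: growth inhibition of human HAL-01 cells, read out with a cell viability assay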
Description: SANGER: Inhibition of human HAL-01 cell growth in a cell viability assay.

A101D = format: functional, cell-based, Homo sapiens; settings: Homo sapiens, A101D;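 also: growth inhibition of the cell line, measured with a viability assay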
Description: SANGER: Inhibition of human A101D cell growth in a cell viability assay.

NEC8 = format: functional, cell-based, Homo sapiens; settings: Homo sapiens, NEC8;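 also: growth inhibition of human NEC8 cells, read out by a cell viability assay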
Description: SANGER: Inhibition of human NEC8 cell growth in a cell viability assay.

KNS-42 = format: functional, cell-based; settings: Homo sapiens;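 also: growth inhibition of KNS-42 cells, read out with a cell viability assay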
Description: SANGER: Inhibition of human KNS-42 cell growth in a cell viability assay.

TE-12 = format: functional, cell-based, Homo sapiens; settings: Homo sapiens, TE-12;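 also: growth inhibition of TE-12 cells, read out by a cell viability assay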
Description: SANGER: Inhibition of human TE-12 cell growth in a cell viability assay.

CAS-1 = format: functional, cell-based, Homo sapiens; settings: Homo sapiens, CAS-1;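 also: growth inhibition of CAS-1 cells, measured with a cell viability assay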
Description: SANGER: Inhibition of human CAS-1 cell growth in a cell viability assay.

LB1047-RCC = format: functional, cell-based, Homo sapiens; settings: Homo sapiens, LB1047-RCC;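 also: inhibition of cell growth, determined with a cell viability assay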
Description: SANGER: Inhibition of human LB1047-RCC cell growth in a cell viability assay.

TE-8 = format: functional, cell-based, Homo sapiens; settings: Homo sapiens, TE-8;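 also: growth inhibition of TE-8 cells, measured with a cell viability readout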
Description: SANGER: Inhibition of human TE-8 cell growth in a cell viability assay.

CW-2 = format: functional, cell-based, Homo sapiens; settings: Homo sapiens, CW-2;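 also: growth inhibition of CW-2 cells, read out by a cell viability assay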
Description: SANGER: Inhibition of human CW-2 cell growth in a cell viability assay.

NB10 = format: functional, cell-based, Homo sapiens; settings: Homo sapiens, NB10;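 also: growth inhibition of NB10 cells, read out by a cell viability assay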
Description: SANGER: Inhibition of human NB10 cell growth in a cell viability assay.

HCC1187 = format: functional, cell-based, Homo sapiens; settings: Homo sapiens, HCC1187;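 also: growth inhibition of HCC1187 cells, read out with a cell viability assay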
Description: SANGER: Inhibition of human HCC1187 cell growth in a cell viability assay.

COLO-320-HSR = format: functional, cell-based, Homo sapiens; settings: Homo sapiens, COLO-320-HSR;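 also: growth inhibition of COLO-320-HSR cells, determined with a cell viability assay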
Description: SANGER: Inhibition of human COLO-320-HSR cell growth in a cell viability assay.

U-87 MG = format: functional, cell-based, Homo sapiens, U-87MG ATCC; settings: Homo sapiens, U-87 MG;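 also: growth inhibition of the cells measured with a viability assay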
Description: SANGER: Inhibition of human U-87-MG cell growth in a cell viability assay.

HEL = format: functional, cell-based, Homo sapiens; settings: Homo sapiens, HEL;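 also: growth inhibition of HEL cells, read out with a cell viability assay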
Description: SANGER: Inhibition of human HEL cell growth in a cell viability assay.

EW-18 = format: functional, cell-based, Homo sapiens; settings: Homo sapiens, EW-18; read-out: IC50;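 also: growth inhibition of EW-18 cells, read out by a cell viability assay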
Description: SANGER: Inhibition of human EW-18 cell growth in a cell viability assay.

HCC2218 = format: functional, cell-based, Homo sapiens; settings: Homo sapiens, HCC2218;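 also: cell viability assay read-out, with IC50 given as the concentration that inhibits growth of the cell line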
Description: SANGER: Inhibition of human HCC2218 cell growth in a cell viability assay.

LU-139 = format: functional, cell-based, Homo sapiens; settings: Homo sapiens, LU-139
Description: SANGER: Inhibition of human LU-139 cell growth in a cell viability assay.

BV-173 = format: functional, cell-based, Homo sapiens; settings: Homo sapiens, BV-173
Description: SANGER: Inhibition of human BV-173 cell growth in a cell viability assay.

LNCaP-Clone-FGC = format: functional, cell-based, Homo sapiens; settings: Homo sapiens, LNCaP-Clone-FGC
Description: SANGER: Inhibition of human LNCaP-Clone-FGC cell growth in a cell viability assay.

NCI-H69 = format: functional, cell-based, Homo sapiens; settings: Homo sapiens, NCI-H69;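 also: growth inhibition of the cell line, read out with a cell viability assay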
Description: SANGER: Inhibition of human NCI-H69 cell growth in a cell viability assay.

CTV-1 = format: functional, cell-based, Homo sapiens; settings: Homo sapiens, CTV-1;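 also: growth inhibition of the cell line, read out with a cell viability assay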
Description: SANGER: Inhibition of human CTV-1 cell growth in a cell viability assay.

Question: With CS(=O)(=O)N1CCN(Cc2cc3nc(-c4cccc5[nH]ncc45)nc(N4CCOCC4)c3s2)CC1 [PICTILISIB] as the molecule, how does the IC50 (SCH) read?
Answer: > 4 µM

Question: And the IC50 (NCI-H1355)?
Answer: > 4 µM

Question: And the IC50 (MSTO-211H)?
Answer: > 4 µM

Question: And the IC50 (P30-OHK)?
Answer: 0.731 µM

Question: And the IC50 (EKVX)?
Answer: 1.01 µM

Question: What about the IC50 (ES7) of the same molecule?
Answer: 0.342 µM

Question: What about the IC50 (KINGS-1) of the same molecule?
Answer: > 4 µM

Question: What about the IC50 (RH-1) of the same molecule?
Answer: > 4 µM

Question: What about the IC50 (ATN-1) of the same molecule?
Answer: > 4 µM

Question: And the IC50 (COLO-829)?
Answer: > 4 µM

Question: What about the IC50 (SF-268) of the same molecule?
Answer: > 4 µM

Question: What about the IC50 (SK-N-DZ) of the same molecule?
Answer: > 4 µM

Question: What about the IC50 (K562) of the same molecule?
Answer: > 4 µM

Question: What about the IC50 (D283 Med) of the same molecule?
Answer: 2.36 µM

Question: What about the IC50 (SK-NEP-1) of the same molecule?
Answer: 0.726 µM

Question: And the IC50 (COLO-800)?
Answer: > 4 µM

Question: And the IC50 (ETK-1)?
Answer: > 4 µM

Question: What about the IC50 (A4-Fuk) of the same molecule?
Answer: 1.3 µM

Question: What about the IC50 (NCI-H1838) of the same molecule?
Answer: > 4 µM

Question: What about the IC50 (GCIY) of the same molecule?
Answer: 0.434 µM

Question: What about the IC50 (COLO-668) of the same molecule?
Answer: > 4 µM

Question: What about the IC50 (MFM-223) of the same molecule?
Answer: > 4 µM

Question: What about the IC50 (NOMO-1) of the same molecule?
Answer: > 4 µM

Question: What about the IC50 (RPMI-8226) of the same molecule?
Answer: > 4 µM

Question: What about the IC50 (QIMR-WIL) of the same molecule?
Answer: 0.865 µM

Question: And the IC50 (SW872)?
Answer: 0.728 µM

Question: And the IC50 (HAL-01)?
Answer: 0.207 µM

Question: What about the IC50 (A101D) of the same molecule?
Answer: 0.99 µM

Question: And the IC50 (NEC8)?
Answer: 0.654 µM

Question: And the IC50 (KNS-42)?
Answer: > 4 µM

Question: And the IC50 (TE-12)?
Answer: > 4 µM

Question: And the IC50 (CAS-1)?
Answer: > 4 µM

Question: And the IC50 (LB1047-RCC)?
Answer: 0.523 µM

Question: And the IC50 (TE-8)?
Answer: 3.48 µM

Question: And the IC50 (CW-2)?
Answer: > 4 µM

Question: And the IC50 (NB10)?
Answer: > 4 µM

Question: And the IC50 (HCC1187)?
Answer: > 4 µM

Question: And the IC50 (COLO-320-HSR)?
Answer: > 4 µM

Question: What about the IC50 (U-87 MG) of the same molecule?
Answer: > 4 µM

Question: And the IC50 (HEL)?
Answer: > 4 µM

Question: Which results are given for CC1=C(/C=C/C(C)=C/C=C/C(C)=C/C(=O)O)C(C)(C)CCC1 [TRETINOIN]?
Answer: IC50 (SCH): > 10 µM; IC50 (NCI-H1355): > 10 µM; IC50 (MSTO-211H): > 10 µM; IC50 (P30-OHK): > 10 µM; IC50 (EKVX): > 10 µM; IC50 (ES7): > 10 µM; IC50 (KINGS-1): > 10 µM; IC50 (RH-1): > 10 µM; IC50 (ATN-1): 0.0303 µM; IC50 (COLO-829): > 10 µM; IC50 (SF-268): > 10 µM; IC50 (SK-N-DZ): > 10 µM; IC50 (EW-18): > 10 µM; IC50 (K562): > 10 µM; IC50 (D283 Med): 0.283 µM; IC50 (SK-NEP-1): 0.662 µM; IC50 (COLO-800): > 10 µM; IC50 (ETK-1): > 10 µM; IC50 (A4-Fuk): > 10 µM; IC50 (HCC2218): > 10 µM; IC50 (NCI-H1838): > 10 µM; IC50 (LU-139): > 10 µM; IC50 (GCIY): > 10 µM; IC50 (COLO-668): > 10 µM; IC50 (MFM-223): > 10 µM; IC50 (BV-173): 1.6 µM; IC50 (LNCaP-Clone-FGC): > 10 µM; IC50 (NOMO-1): > 10 µM; IC50 (RPMI-8226): 0.993 µM; IC50 (QIMR-WIL): 6.62 µM; IC50 (SW872): > 10 µM; IC50 (HAL-01): > 10 µM; IC50 (A101D): > 10 µM; IC50 (NEC8): > 10 µM; IC50 (KNS-42): > 10 µM; IC50 (TE-12): > 10 µM; IC50 (NCI-H69): 2.27 µM; IC50 (CAS-1): > 10 µM; IC50 (LB1047-RCC): > 10 µM; IC50 (TE-8): > 10 µM; IC50 (CTV-1): 0.963 µM; IC50 (CW-2): > 10 µM; IC50 (NB10): > 10 µM; IC50 (HCC1187): > 10 µM; IC50 (COLO-320-HSR): > 10 µM; IC50 (U-87 MG): > 10 µM; IC50 (HEL): > 10 µM

Question: With CO[C@@H]1[C@H](N(C)C(=O)c2ccccc2)C[C@H]2O[C@]1(C)n1c3ccccc3c3c4c(c5c6ccccc6n2c5c31)C(=O)NC4 [MIDOSTAURIN] as the molecule, how does the IC50 (EW-18) read?
Answer: 0.322 µM

Question: And the IC50 (ETK-1)?
Answer: 0.377 µM

Question: And the IC50 (SW872)?
Answer: > 0.512 µM

Question: What about the IC50 (CAS-1) of the same molecule?
Answer: 0.182 µM

Question: What about the IC50 (TE-8) of the same molecule?
Answer: > 0.512 µM

Question: What about the IC50 (COLO-320-HSR) of the same molecule?
Answer: > 0.512 µM

Question: What does the source list for O=C(NCCCNc1nc(Nc2cccc(NC(=O)N3CCCC3)c2)ncc1I)c1cccs1 [BX-795]?
Answer: IC50 (SCH): > 5 µM; IC50 (NCI-H1355): > 5 µM; IC50 (MSTO-211H): > 5 µM; IC50 (P30-OHK): 0.496 µM; IC50 (EKVX): > 5 µM; IC50 (ES7): 0.836 µM; IC50 (KINGS-1): 3.7 µM; IC50 (RH-1): 1.7 µM; IC50 (ATN-1): 1.37 µM; IC50 (COLO-829): > 5 µM; IC50 (SF-268): 4.02 µM; IC50 (SK-N-DZ): > 5 µM; IC50 (K562): > 5 µM; IC50 (D283 Med): 1.04 µM; IC50 (SK-NEP-1): 1.65 µM; IC50 (COLO-800): 2.05 µM; IC50 (ETK-1): 4.52 µM; IC50 (A4-Fuk): > 5 µM; IC50 (NCI-H1838): > 5 µM; IC50 (GCIY): > 5 µM; IC50 (COLO-668): > 5 µM; IC50 (MFM-223): > 5 µM; IC50 (LNCaP-Clone-FGC): > 5 µM; IC50 (NOMO-1): > 5 µM; IC50 (RPMI-8226): > 5 µM; IC50 (QIMR-WIL): 2.29 µM; IC50 (SW872): 2.71 µM; IC50 (HAL-01): > 5 µM; IC50 (A101D): 3.64 µM; IC50 (NEC8): > 5 µM; IC50 (KNS-42): > 5 µM; IC50 (TE-12): > 5 µM; IC50 (CAS-1): 3.02 µM; IC50 (LB1047-RCC): 1.29 µM; IC50 (TE-8): 3.55 µM; IC50 (CW-2): > 5 µM; IC50 (NB10): 4.23 µM; IC50 (HCC1187): 2.9 µM; IC50 (COLO-320-HSR): > 5 µM; IC50 (U-87 MG): > 5 µM; IC50 (HEL): > 5 µM

Source: ChEMBL document CHEMBL1201861, “Genomics of Drug Sensitity in Cancer screening data, Wellcome Trust Sanger Institute”
